Source: patent US20190328869A1, “IMMUNOTHERAPEUTIC PRODUCT AND MDSC MODULATOR COMBINATION THERAPY” (Transgene SA, priority 2016, published 2019)

Tests used:
melanoma = melanoma bearing mice; cited from earlier work
anti-HBc antibodies = assay: Anti-HBc antibody level by ELISA in HBV-persistent mice; type: in vivo, C57BL/6J mice; conditions: serum 1/2000, up to day 76; sildenafil 20 mg/kg/day D31-59 or D48-76
Source text: Graphs A-F illustrate anti-HBc antibody levels determined respectively in individual mice of the six study groups 1-6. Individual mice are shown as thin line and the group mean titers as bold dotted black line. In all graphs the Y-axis indicates the anti-HBc levels (OD450) and the X-axis the time (number of days post-AAV2/8-HBV injection). Time points of immunization (D36, D43, D50) are shown by a dashed line and the period of sildenafil treatment is shown by a horizontal bar on the top of the graph.
The HBV persistent mice used in the study were described by Dion et al. (2013, J Virol, 87(10):5554-63). The model is based on the introduction in mice of an adeno-associated virus (AAV) encoding for a full length HBV genome (AAV2/8-HBV) and causing the production of infectious HBV particles in mouse livers. This allows the analysis of HBV-specific viral parameters (HBsAg, HBeAg, HBcAg and viremia) as well as immunological read-outs (ICS, ELISpot or humoral immune responses). […]
96-well Immulon 4HBX plates (Thermo Scientific) were coated overnight at +4° C. with 100 μL of recombinant HBc (Prospec) diluted to 1 μg/mL in BupH Carbonate-Bicarbonate buffer (Thermo Scientific Cat#28382). […] Ten minutes later, reaction was stopped by adding of 100 μL per well of 1N HCl and optic density was measured at 450 nm with Tecan Infinity 200 reader. […]

HBV RNA (AAV2/8-HBV) = assay: Serum HBV RNA by RT-qPCR in HBV-persistent mice; type: in vivo, C57BL/6J mice; conditions: sildenafil only 5 mg/kg/day (group b), over the experiment
Protocol: The graph illustrates the median level of HBV RNA determined in the serum of 6 mice per group (groups a, b, e and f) treated with sildenafil at 5 mg/kg/day (group b) or with AdTG18201 alone (group e) or with a combination of AdTG18201 and sildenafil (at 5 mg/kg/day, group f). The control group a is untreated. The Y-axis indicates the median HBV RNA level (log 10 copies/mL) and the X-axis the time (number of days post-AAV2/8-HBV injection). Time points of AdTG18201 immunization (D36, D43, D50) are shown by a dashed line and the period of sildenafil treatment (from D31 to 59) is shown by a horizontal bar on the X axis.
HBV DNA/RNA extraction was performed using the MagMax-96 viral RNA isolation kit from Ambion according to manufacturer's protocol. Briefly, 50 μL of serum was added to 20 μL of reconstituted RNA/DNA binding beads. Plate was shaken for 1 minute on a thermomixer (Eppendorf Thermomixer compact) at 600-700 rpm. Then, 130 μL of lysis/binding solution, spiked with qPCR kit internal extraction control DNA, were added before additional shaking for 10 minutes. Beads were captured on a magnetic stand for 3 minutes and after 4 washes the supernatant was discarded. Residual washing solution was removed by drying the beads (shaking of the plate for 3 minutes at 900 rpm). Then, 50 μL of elution buffer was added (shaking of the plate for 3 minutes at 900 rpm). […]

Structure (SMILES): CCCc1nn(C)c2c(=O)nc(-c3cc(S(=O)(=O)N4CCN(C)CC4)ccc3OCC)[nH]c12 [sildenafil, 1-[[3-(4,7-dihydro-1-methyl-7-oxo-3-propyl-1H-pyrazolo[4,3-d]pyrimidin-5-yl)-4-ethoxyphenyl]sulfonyl]-4-methylpiperazine]
- concentration of inflammatory mediators (IL-1β, IL-6, VEGF, GM-CSF, MCP-1) in melanoma lesions (melanoma): significantly diminished
- tumor progression (melanoma): delay tumor progression
- anti-HBc antibodies induction (OD450) (anti-HBc antibodies): no anti-HBc antibodies were induced
- median level of viral RNA (HBV RNA (AAV2/8-HBV)): around 4.5 log 10 copies/mL serum
